Converted amounts (≈) assume the structure as drawn.
Experiment: Solubility determination in aqueous vehicle (0.9% NaCl and 0.5% polysorbate 80), filtrate analyzed by HPLC
Type: physicochemical
Experimental: Sample preparation: excess Type 8 was added to the vehicle containing 0.9% NaCl and 0.5% polysorbate 80 to achieve ˜3 mg/mL suspension. The mixture was sonicated for 15 minutes, then agitated at 500 rpm at room temperature. At 24 hours, the mixture was filtrated, and filtrate was analyzed by HPLC to determine the solubility. • Instrument: Agilent 1260 • Column: ACE ultracore super C18 (100 mm*4.6 mm*2.5 μm) (P/N: CORE-25A-1046U) • Wavelength: 234 nm • Column Temperature: 20° C. • Column Flow: 1.0 mL/min • Acquisition time: 25 min • Injection volume: 5 μL • Retention time: ˜14 min • Mobile Phase A: 5 mM (NH4)2HPO4 and 5 mM of NH4H2PO4 in H2O • Mobile Phase B: ACN [table] The solubility of Form C (hemihydrate as disclosed in WO 2018/096170) was determined in the same media used to determine the solubility of Type 8 as described above. Sample preparation: excess Form C was added to the vehicle containing 0.9% NaCl and 0.5% polysorbate 80. The mixture was sonicated for 15 minutes, then agitated at 500 rpm at room temperature. At 24 hours, the mixture was filtrated, and filtrate was analyzed by HPLC to determine the solubility.

Compound: Cc1nc(N(C)C(=O)Cc2ccc(-c3ccccn3)cc2)sc1S(N)(=O)=O [Type 8, N-methyl-N-(4-methyl-5-sulfamoylthiazol-2-yl)-2-(4-(pyridin-2-yl)phenyl) acetamide]
- solubility at 24 h (aqueous vehicle (0.9% NaCl and 0.5% polysorbate 80), aqueous with cosolvent or surfactant or cyclodextrin, thermodynamic from solid, RT, 0.9% NaCl and 0.5% polysorbate 80): ~70.7 µg/mL (≈ 176 µM)
- solubility (room temperature, aqueous media containing 0.9% NaCl and 0.5% polysorbate 80, at 24 hours): around 70.7 μg/mL

— patent US20260085068A1, “A NOVEL CRYSTALLINE FORM OF PRITELIVIR” (Assembly Biosciences, Inc., priority 2022, published 2026)
